# Results from patent US12534439B2, “Xanthohumol derivatives and methods for making and using” (Oregon State University, priority 2021, dated 2026).
# System: HFD-fed C57BL/6J mice
# Assay: Untargeted cortex LC-MS metabolomics
# Format: in vivo
# Conditions: cortex of HFD-fed mice
# Description: Plasma and Cortex LC-MS Metabolomics. The left and right sides of the cortex were pooled and ground using liquid nitrogen. Cortex samples (approximately 30 mg) were extracted as previously described with slight modifications. Tissues were homogenized with 600 μL of cold 80% acetonitrile with 0.1% formic acid containing 0.2 μg/mL of dopamine-d4 (Sigma-Aldrich, St Louis, MO, USA) and 0.2 μg/mL of chlorpropamide (Sigma-Aldrich, St Louis, MO, USA) using a counter-top bullet blender for 2 min and centrifuged at 20 000 rpm for 10 minutes. Supernatants were transferred to high performance liquid chromatography (HPLC) vials for analysis.
# LC-high-resolution mass spectrometry/MS. Data dependent acquisition in both negative and positive ion mode was conducted using a Shimadzu Nexera UPLC system coupled to an AB SCIEX TripleTOF 5600 mass spectrometer (AB SCIEX, Toronto, Canada). Chromatographic separation was conducted using an Inertsil Phenyl-3 column (4.6×150 mm, 100 Å, 5 μm; GL Sciences, Tokyo, Japan). Spray voltage was −4200 V for negative ion mode and 4500 V for positive ion mode acquisition. The injection volume was 3 μL. Metabolite identifications were performed using Progenesis QI software (V2.4.6911) with METLIN plugin V1.0.6499 (NonLinear Dynamics, United Kingdom). Progenesis QI was used for peak picking, retention time correction, data normalization, peak alignment, and metabolite annotations. Metabolites were detected in both ion modes; the one with the lowest coefficient of variation of the QC was kept.
smiles,measurement,value
"COc1cc(O)c(CC=C(C)C)c(O)c1C(=O)/C=C/c1ccc(O)cc1 [XN, xanthohumol]","Ion intensities, Mean: 1,2-DIPALMITOYL-SN-GLYCEROL",934.62
same,"Ion intensities, Mean: 1-Arachidonoyl-glycerophosphoinositol",645.87
same,"Ion intensities, Mean: 1-Palmitoyl-2-linoleoyl PE",1782.31
same,"Ion intensities, Mean: 2-Pyrrolidinone",1091.46
same,"Ion intensities, Mean: 2′-DEOXYURIDINE 5′-MONOPHOSPHATE",615.86
same,"Ion intensities, Mean: 3-Methyl-L-histidine",495.48
same,"Ion intensities, Mean: 3-PHOSPHO-GLYCERIC ACID",2094.74
same,"Ion intensities, Mean: 5-Acetylamino-6-amino-3-methyluracil",108.09
same,"Ion intensities, Mean: 5-Methylcytidine",6615.71
same,"Ion intensities, Mean: 12-HYDROXYDODECANOIC-ACID",2479.58
same,"Ion intensities, Mean: 20-Hydroxy-PGE2",9703.49
same,"Ion intensities, Mean: 27-Hydroxycholesterol",17882.79
same,"Ion intensities, Mean: ADENOSINE",42044.83
same,"Ion intensities, Mean: ADENOSINE 5′-DIPHOSPHORIBOSE",2010.85
same,"Ion intensities, Mean: ADENOSINE 5′-MONOPHOSPHATE",75745.39
same,"Ion intensities, Mean: ADENOSINE-5′-DIPHOSPHOGLUCOSE",924.21
same,"Ion intensities, Mean: ADP",1070.27
same,"Ion intensities, Mean: AMINOADIPATE",211.18
same,"Ion intensities, Mean: ASCORBATE",2138.35
same,"Ion intensities, Mean: ASPARTATE",1174.88
same,"Ion intensities, Mean: Acetylcarnitine",11173.39
same,"Ion intensities, Mean: Acetylcholine",1788.61
same,"Ion intensities, Mean: Adenine",1575.62
same,"Ion intensities, Mean: Adenylosuccinate",482.18
same,"Ion intensities, Mean: Adenylsuccinic acid",1871.57
same,"Ion intensities, Mean: Arachidonic acid",25496.26
same,"Ion intensities, Mean: Arachidonic acid ethyl ester",417.92
same,"Ion intensities, Mean: Arginine",1863.90
same,"Ion intensities, Mean: Aspartic acid",8381.28
same,"Ion intensities, Mean: BILIVERDIN",251.38
same,"Ion intensities, Mean: CARNITINE",11992.59
same,"Ion intensities, Mean: CDP-Ethanolamine",303.02
same,"Ion intensities, Mean: CHENODEOXYCHOLATE",5290.32
same,"Ion intensities, Mean: CITRATE",997.79
same,"Ion intensities, Mean: CMP",586.09
same,"Ion intensities, Mean: Carnosine",929.30
same,"Ion intensities, Mean: Choline",7326.72
same,"Ion intensities, Mean: Creatine",81660.56
same,"Ion intensities, Mean: Cysteineglutathione disulfide",1321.30
same,"Ion intensities, Mean: Cytidine",766.86
same,"Ion intensities, Mean: Cytidine 2′,3′-cyclic phosphate",419.79
same,"Ion intensities, Mean: Cytidine diphosphate choline (CDPcholine)",2132.21
same,"Ion intensities, Mean: D-GLUCOSE 6-PHOSPHATE",54.37
same,"Ion intensities, Mean: D-Glucaro-1,4-lactone",1852.68
same,"Ion intensities, Mean: D-RIBOSE 5-PHOSPHATE",119.65
same,"Ion intensities, Mean: DESMOSTEROL",16777.33
same,"Ion intensities, Mean: DIHYDROOROTATE",129.45
same,"Ion intensities, Mean: Deoxycytidine",405.53
same,"Ion intensities, Mean: Deoxyguanosine",2552.08
same,"Ion intensities, Mean: Docosahexaenoic acid",3528.63
same,"Ion intensities, Mean: Docosenamide",22701.50
same,"Ion intensities, Mean: Dodecanedioic acid",332.32
same,"Ion intensities, Mean: ERUCIC ACID",114.42
same,"Ion intensities, Mean: ETHANOLAMINE PHOSPHATE",361.87
same,"Ion intensities, Mean: Ergothioneine",433.26
same,"Ion intensities, Mean: Ethyl nicotinate",74.78
same,"Ion intensities, Mean: GLUTAMIC ACID",7047.98
same,"Ion intensities, Mean: GLUTAMINE",18241.11
same,"Ion intensities, Mean: GUANOSINE 5′-MONOPHOSPHATE",2052.93
same,"Ion intensities, Mean: Glutamate",45779.91
same,"Ion intensities, Mean: Glutathione",194624.55
same,"Ion intensities, Mean: Glycerophosphocholine",104911.40
same,"Ion intensities, Mean: Guanosine monophosphate",482.20
same,"Ion intensities, Mean: HEPTADECANOATE",24.77
same,"Ion intensities, Mean: HISTIDINE",901.19
same,"Ion intensities, Mean: Homocarnosine",433.96
same,"Ion intensities, Mean: Homoserine",952.74
same,"Ion intensities, Mean: Hydroxybutyric acid",2561.64
same,"Ion intensities, Mean: Hydroxyphenethylamine",3489.46
same,"Ion intensities, Mean: Hypoxanthine",100.45
same,"Ion intensities, Mean: Hypusine",94.62
same,"Ion intensities, Mean: ISOCITRIC ACID",2099.31
same,"Ion intensities, Mean: ISOLEUCINE",1271.60
same,"Ion intensities, Mean: Indoleacetaldehyde",565.25
same,"Ion intensities, Mean: Inosine",1426.47
same,"Ion intensities, Mean: Inosine 5′-monophosphate (IMP)",3551.74
same,"Ion intensities, Mean: Isostearic acid",2314.30
same,"Ion intensities, Mean: L-2-Amino-5-hydroxypentanoicacid",1771.05
same,"Ion intensities, Mean: L-OLEOYL-RAC-GLYCEROL",3415.51
same,"Ion intensities, Mean: LACTATE",3374.25
same,"Ion intensities, Mean: LAUROYLCARNITINE",384.69
same,"Ion intensities, Mean: LEUKOTRIENE B4",49.50
same,"Ion intensities, Mean: LYSINE",51.50
same,"Ion intensities, Mean: Lathosterol",23593.87
same,"Ion intensities, Mean: Lipoamide",70.91
same,"Ion intensities, Mean: MALATE",1271.76
same,"Ion intensities, Mean: Methionine",1365.89
same,"Ion intensities, Mean: Methylthioadenosine",2473.94
same,"Ion intensities, Mean: Myristoylcarnitine",1742.03
same,"Ion intensities, Mean: N,N-dimethyl-Safingol",638.46
same,"Ion intensities, Mean: N-(1-Deoxy-1-fructosyl) serine",3036.19
same,"Ion intensities, Mean: N-ACETYL-L-ASPARTICACID",24960.43
same,"Ion intensities, Mean: N-ACETYLNEURAMINATE",817.62
same,"Ion intensities, Mean: N-Acetyl-Glutamic acid",154.68
same,"Ion intensities, Mean: N-Acetyl-L-alanine",1997.71
same,"Ion intensities, Mean: N-Acetylaspartylglutamic acid",2179.47
same,"Ion intensities, Mean: N-Acetylglutamine",273.18
same,"Ion intensities, Mean: N-Acetylisoputreanine",99.54
same,"Ion intensities, Mean: N-Acetyllactosamine",308.43
same,"Ion intensities, Mean: N-Linoleoyl GABA",57.01
same,"Ion intensities, Mean: N-Methyl-Glutamate",2277.43
same,"Ion intensities, Mean: N-a-Acetyl-Arginine",175.03
same,"Ion intensities, Mean: NAD",532.29
same,"Ion intensities, Mean: NE,NE,NE-TRIMETHYLLYSINE",2830.12
same,"Ion intensities, Mean: Niacinamide",4607.66
same,"Ion intensities, Mean: Nicotinamide adenine dinucleotide (NAD)",2094413
same,"Ion intensities, Mean: O-Phosphoethanolamine",497.23
same,"Ion intensities, Mean: Octadecenoic acid",202.97
same,"Ion intensities, Mean: Oleamide",4025.45
same,"Ion intensities, Mean: Oxidized glutathione",2115.40
same,"Ion intensities, Mean: PALMITATE",1472.32
same,"Ion intensities, Mean: PALMITOLEIC ACID",62.02
same,"Ion intensities, Mean: PANTOTHENIC ACID",442.74
same,"Ion intensities, Mean: PETROSELINIC ACID",220.71
same,"Ion intensities, Mean: PHENYLALANINE",2371.34
same,"Ion intensities, Mean: PHENYLETHANOLAMINE",1245.94
same,"Ion intensities, Mean: Phenylpropionylglycine",294.60
same,"Ion intensities, Mean: Phosphocholine",18574.78
same,"Ion intensities, Mean: Phosphodimethyl-ethanolamine",161.80
same,"Ion intensities, Mean: Pipecolic acid",422.43
same,"Ion intensities, Mean: Propionylcarnitine",571.28
same,"Ion intensities, Mean: Pyridoxamine-5′-Phosphate",377.92
same,"Ion intensities, Mean: RAC-GLYCEROL-L-MYRISTATE",293.55
same,"Ion intensities, Mean: S-Adenosylhomocysteine",397.04
same,"Ion intensities, Mean: S-Adenosylmethionine",11562.08
same,"Ion intensities, Mean: SERINE",355.32
same,"Ion intensities, Mean: SUCCINATE",362.22
same,"Ion intensities, Mean: Spermic acid 1",178.91
same,"Ion intensities, Mean: Spermidine",5406.36
same,"Ion intensities, Mean: Sphinganine",34.01
same,"Ion intensities, Mean: Sphinganine 1-phosphate",2568.50
same,"Ion intensities, Mean: Sphingosine",1322.46
same,"Ion intensities, Mean: Stearoylglycerophosphoserine",2006.21
same,"Ion intensities, Mean: Succinyladenosine",192.45
same,"Ion intensities, Mean: TAURINE",6070.22
same,"Ion intensities, Mean: THEOPHYLLINE",18.71
same,"Ion intensities, Mean: TRYPTOPHAN",1131.43
same,"Ion intensities, Mean: Tetradecanedioic acid",125.75
same,"Ion intensities, Mean: Tetrahydrodeoxycortisol",3344.70
same,"Ion intensities, Mean: Threoninyl-Alanine",227.23
same,"Ion intensities, Mean: Tyrosine",4311.01
same,"Ion intensities, Mean: URIDINE",1155.56
same,"Ion intensities, Mean: URIDINE 5′-DIPHOSPHOGALACTOSE",462.04
same,"Ion intensities, Mean: URIDINE-5-MONOPHOSPHATE",2103.27
same,"Ion intensities, Mean: Undecanedicarboxylic acid",236.12
same,"Ion intensities, Mean: Uracil",201.36
same,"Ion intensities, Mean: Uridine 5′-diphosphate",248.01
same,"Ion intensities, Mean: Xanthine",137.03
same,"Ion intensities, Mean: cyclic GMP-AMP",1495.60
same,"Ion intensities, Mean: diethyltoluamide",8.44
same,"Ion intensities, Mean: docosa-hexaenoic acid",3095.80
same,"Ion intensities, Mean: hydroxyhexadecanoyl carnitine",1430.92
same,"Ion intensities, Mean: hydroxyvitamin D3",16859.40
same,"Ion intensities, Mean: sn-glycero-3-Phosphoethanolamine",737.74
